In PMC7763995 (Molecules, 2020):

Tests used:
Porcine liver CES = experiment: In vitro CES inhibition, 4-NPA substrate; assay type: biochemical; settings: compound concentration 20 µM; n.a. = not active
Protocol: (§1) Measurements were performed with a FLUOStar Optima microplate reader (BMG Labtech, Ortenberg, Germany). Compounds were dissolved in DMSO, the incubation mixture contained 2% solvent.

Human erythrocyte AChE [1] = biological target: T1, Human erythrocyte AChE (Homo sapiens, UniProt P22303); experiment: Kinetic study of AChE inhibition, steady-state inhibition constants; assay type: biochemical
T1 construct: AChE from human erythrocytes was used; purchased Sigma-Aldrich; host or cells: human erythrocytes
T1 sequence (P22303 32-617 isoform P22303-2 limits assumed): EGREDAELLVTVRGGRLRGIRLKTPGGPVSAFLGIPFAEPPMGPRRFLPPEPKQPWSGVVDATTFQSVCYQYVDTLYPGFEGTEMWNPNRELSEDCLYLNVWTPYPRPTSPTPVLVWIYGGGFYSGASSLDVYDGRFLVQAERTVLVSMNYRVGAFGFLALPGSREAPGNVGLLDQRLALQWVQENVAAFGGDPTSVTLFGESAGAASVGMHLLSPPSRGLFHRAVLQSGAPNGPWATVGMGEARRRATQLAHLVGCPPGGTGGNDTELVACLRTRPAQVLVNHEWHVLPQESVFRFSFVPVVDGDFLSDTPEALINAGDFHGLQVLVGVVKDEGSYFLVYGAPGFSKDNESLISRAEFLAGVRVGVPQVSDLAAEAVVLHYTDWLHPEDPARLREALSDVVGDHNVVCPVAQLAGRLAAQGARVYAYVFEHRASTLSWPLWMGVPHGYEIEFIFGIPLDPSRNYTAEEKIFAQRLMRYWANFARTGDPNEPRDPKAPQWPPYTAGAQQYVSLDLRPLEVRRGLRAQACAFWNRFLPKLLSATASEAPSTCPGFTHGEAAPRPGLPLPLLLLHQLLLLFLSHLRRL
Protocol: Mechanisms of human erythrocyte AChE and equine serum BChE inhibition were assessed via a thorough analysis of enzyme kinetics. Residual activity was measured following 5 min incubation at 25°C (for temperature equilibration) with three increasing concentrations of inhibitor and six decreasing substrate concentrations. Substrate was added immediately after the 5 min incubation with inhibitor and the rates of absorption were monitored at 412 nm using a FLUOStar OPTIMA microplate reader.

[2] = FRAP (ferric reducing antioxidant power) assay; settings: 20 µM, 1 h incubation; ratio of concentrations of Trolox and test compound with same effect
Protocol: The FRAP (ferric reducing antioxidant power) assay proposed by Benzie and Strain [80, 81] was modified to be performed in 96-well microplates. The FRAP reagent contained 2.5 mL of 10 mM TPTZ (2,4,6-tris(2-pyridyl)-s-triazine (Sigma-Aldrich) solution in 40 mM HCl, 2.5 mL of 20 mM FeCl3 (Sigma-Aldrich) in distilled water and 25 mL of 0.3 M acetate buffer (pH 3.6). In 96-well microplates, 10 µL aliquots of the substance under investigation (compounds 7, 8 or reference substance) dissolved in DMSO (0.5 mM) were placed in quadruplicate. The FRAP reagent (240 µL) freshly prepared and warmed to 37°C was added to three of these samples, while the same volume of acetate buffer was added to the fourth one (blank). Consequently, the concentration of the substance in a plate was 20 µM. The absorbance at 600 nm was monitored spectrophotometrically with a FLUOStar OPTIMA microplate reader at 37°C for an hour with an interval of 5–10 min. Data in Table 2 are given for 1 h of incubation of compounds with FRAP reagent. The absorbances of the blanks and those of the mixture of 240 µL FRAP reagent plus 10 µL DMSO were subtracted from the absorbances of the samples at each time interval to calculate the absorbance change. Standard antioxidants Trolox and BHT dissolved in DMSO and analyzed as described above were used as reference compounds. A calibration curve with linear formula y = 0.03x (R^2 = 0.998, p < 0.0001) was obtained for Trolox solution in DMSO in the range 2.5–100 µM and the results were expressed as FRAP units (the values calculated as the ratio of the concentrations of Trolox and the test compound resulting in the same effect.)

Human erythrocyte AChE [3] = biological target: T1, Human erythrocyte AChE; experiment: biochemical; settings: mean ± SEM, n = 3; n.a. = not active; read-out: Human Erythrocyte AChE, IC50
Protocol: as §1

Equine serum BChE = biological target: T2, Equine serum BChE (Equus caballus, UniProt P81908); experiment: biochemical
T2 construct: equine serum BChE; purchased Sigma-Aldrich; host or cells: equine serum
T2 sequence (P81908 whole entry): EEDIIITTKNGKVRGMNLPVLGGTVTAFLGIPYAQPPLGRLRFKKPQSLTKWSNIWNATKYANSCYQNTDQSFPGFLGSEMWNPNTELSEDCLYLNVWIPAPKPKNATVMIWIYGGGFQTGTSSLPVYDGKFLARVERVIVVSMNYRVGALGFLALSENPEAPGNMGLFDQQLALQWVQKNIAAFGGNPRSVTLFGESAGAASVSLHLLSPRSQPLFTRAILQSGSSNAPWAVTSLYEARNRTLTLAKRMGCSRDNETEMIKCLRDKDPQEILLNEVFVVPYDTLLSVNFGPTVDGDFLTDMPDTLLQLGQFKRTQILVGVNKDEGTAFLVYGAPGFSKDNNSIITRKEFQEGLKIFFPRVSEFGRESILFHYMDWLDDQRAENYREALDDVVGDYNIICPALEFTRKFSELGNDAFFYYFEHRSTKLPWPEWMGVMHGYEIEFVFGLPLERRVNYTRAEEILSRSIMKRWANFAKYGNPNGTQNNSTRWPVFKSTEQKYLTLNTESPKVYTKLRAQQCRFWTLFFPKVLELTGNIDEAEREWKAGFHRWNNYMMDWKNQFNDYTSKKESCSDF
Protocol: as §1

EeAChE PAS = biological target: T3, EeAChE PAS (Electrophorus electricus, UniProt O42275); assay type: binding; settings: compound concentration 20 µM
T3 construct: Electric eel AChE (EeAChE, type VI-S, lyophilized powder); purchased Sigma-Aldrich type VI-S; host or cells: electric eel
T3 sequence (O42275 24-633): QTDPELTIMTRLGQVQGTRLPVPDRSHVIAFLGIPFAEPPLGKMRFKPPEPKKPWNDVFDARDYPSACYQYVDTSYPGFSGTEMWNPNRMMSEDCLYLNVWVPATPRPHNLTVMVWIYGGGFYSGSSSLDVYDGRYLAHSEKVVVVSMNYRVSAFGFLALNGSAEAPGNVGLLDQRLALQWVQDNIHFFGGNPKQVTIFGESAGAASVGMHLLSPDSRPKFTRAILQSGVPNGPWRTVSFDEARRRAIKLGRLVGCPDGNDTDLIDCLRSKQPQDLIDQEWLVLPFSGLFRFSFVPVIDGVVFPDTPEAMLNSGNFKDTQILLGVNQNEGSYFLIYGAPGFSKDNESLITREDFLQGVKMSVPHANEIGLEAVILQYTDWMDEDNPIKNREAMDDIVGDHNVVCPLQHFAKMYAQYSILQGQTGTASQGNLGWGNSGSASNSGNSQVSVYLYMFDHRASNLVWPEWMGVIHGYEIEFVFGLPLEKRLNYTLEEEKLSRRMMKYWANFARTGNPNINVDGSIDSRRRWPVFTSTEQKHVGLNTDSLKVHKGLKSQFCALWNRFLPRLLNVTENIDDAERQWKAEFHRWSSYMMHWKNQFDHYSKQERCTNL
Protocol: Electric eel AChE (EeAChE, type VI-S, lyophilized powder, Sigma-Aldrich, Saint Louis, MO, USA) was used owing to its high degree of purification, high activity, and lower cost compared to human AChE.
The blank contained propidium iodide of the same concentration in 1 mM Tris-HCl buffer pH 8.0. The measurements were carried out in triplicate on a FLUOStar Optima microplate reader, and the results were calculated by formula (1):% Displacement = 100 − (IFAChE+ Propidium + inhibitor / IFAChE + Propidium) × 100(1) where IFAChE + Propidium is the fluorescence intensity of the propidium associated with AChE in the absence of the test compound (taken as 100%), and IFAChE + Propidium + inhibitor is the fluorescence intensity of the propidium associated with AChE in the presence of the test compound.

mouse brain homogenate = experiment: Luminol chemiluminescence assay in mouse brain homogenate (TBHP-initiated); settings: compound concentration 20 µM; mice brain homogenate
Protocol: The work was carried out in accordance with the EU Directive 2010/63/EU. Hybrid BDF1 mice (about 6 months old) were sacrificed by decapitation. Each brain was rapidly excised, frozen in liquid nitrogen, and stored at −80°C until use. The brains were thawed and homogenized using a Wisd WiseTis HG-15D homogenizer for 2 min in a buffer (0.01 M PBS, pH 7.4 or 0.1 M Tris-HCl, pH 7.4). Protein concentrations were determined by the Lowry method.
Luminol-dependent chemiluminescence produced by mouse brain homogenates was measured using a 1250 Luminometer (LKB Wallac, Turku, Finland) according to the assay by Di Meo et al. with minor modifications. The reaction mixture consisted of mouse brain homogenate (protein concentration 0.1 mg/mL) in 0.1 M Tris-HCl (Sigma-Aldrich), pH 7.4, luminol (Sigma-Aldrich) (0.05 mM), TBHP (Sigma-Aldrich) (0.073 M) and tested compounds at a concentration of 20 μM. This was placed in a light-proof luminometer chamber and the background reading was recorded. All measurements were carried out at 37°C. The gain control was set to give a reading of 10 mV using a built-in standard. The free radical content in mouse brain homogenate was evaluated by the change in the light sum (the area under the kinetic curve of luminescence intensity for the entire luminescence time). All compounds were examined at least in triplicate. The effects of tested compounds were measured as the percentage decrease in the light sum relative to the control (a sample with no compound added).

SMILES: CC(C)(C)c1cc(C=NCCNc2c3c(nc4ccccc24)CCCCC3)cc(C(C)(C)C)c1O [Compound 7c, 2,6-Di-tert-butyl-4-{[2-(7,8,9,10-tetrahydro-6H-cyclohepta[b]quinolin-11-ylamino)-ethylimino]-methyl}-phenol]
- Porcine Liver CES, (%) inhibition (Porcine liver CES): 30.1 ± 2.5%
- αKi (noncompetitive component), AChE (Human erythrocyte AChE [1]; Lineweaver-Burk plots): 4.30 ± 0.02 µM
- Ki (Human erythrocyte AChE [1]; Lineweaver-Burk plots, read-out: Ki (competitive component), AChE): 1580 ± 100 nM
- Mechanism of AChE inhibition (Human erythrocyte AChE [1]; changes in both Km and Vmax): mixed type of reversible inhibition
- Ferric Reducing Antioxidant Power, FRAP Units [2]: 0.52 ± 0.04
- IC50 (Human erythrocyte AChE [3]): 4030 ± 30 nM
- Selectivity for BChE (Equine serum BChE; IC50 AChE / IC50 BChE): 9.6
- IC50 (Equine serum BChE; mean ± SEM, n = 3, n.a. = not active, read-out: Equine Serum BChE, IC50): 419 ± 40 nM
- Displacement of Propidium from EeAChE PAS (%) (EeAChE PAS): 16.3 ± 1.3%
- Radical Scavenging Capacity in Luminol Chemiluminescence Assay, Luminescence Inhibition, % (mouse brain homogenate): 95.0 ± 0.4%
